# Laboratory results: patent publication US8486979B2, “1,2,4 oxadiazole compounds and methods of use thereof” (AbbVie Inc., priority 2006, dated 2013)
# Structures can show the parent of a compound that is named as a salt.
# Biological target: T1, human α4β2 nicotinic acetylcholine receptor (Homo sapiens, UniProt P17787+P43681)
# T1 construct: expressed in transfected cells
# Test: Calcium flux (FLIPR) assay, HEK-293 cells expressing human α4β2 nAChR
# Type: cell-based
# Conditions: presence and absence of α4β2 PAM Compound 1, FIG. 5
# Description: Experimental Procedure: Human embryonic kidney (HEK) 293 cells stably expressing human α4β2 or α3β4 combinations are grown to confluency in 162 cm^2 tissue culture flasks in DMEM media supplemented with 10% FBS and 25 μg/ml zeocin and 200 μg/ml hygromycin B. IMR-32 neuroblastoma cells (ATCC) are grown to confluency in 162 cm^2 tissue culture flasks in minimum essential media supplemented with 10% FBS and 1 mM sodium pyruvate, 1% non-essential amino acids and 1% antibiotic-antimycotic. The cells are then dissociated using cell dissociation buffer and 100-150 μl per well of 3.5×10^5 cells/ml cell suspension (˜50,000-100,000 cells/well) was plated into 96-well black plates (poly-D-lysine precoated) with clear bottom and maintained for 24-48 hours in a tissue culture incubator at 37° C. under an atmosphere of 5% CO2: 95% air. Other clonal cell lines or primary cell cultures that express endogenous α4* nicotinic receptors may also be used in this assay. Calcium flux was measured using calcium-3 assay kit (Molecular Devices, Sunnyvale, Calif.) or fluo-4 (Invitrogen). A stock solution of the dye was prepared by dissolving each vial supplied by the vendor in Hank's balanced salt solution buffer (HBSS) or 150 mM NMDG, 20 mM CaCl2 containing 10 mM HEPES, The stock solution was diluted 1:20 using the same buffer before use. The growth media was removed from the cells. The cells were loaded with 100 μl of the dye per well and incubated at room temperature for up to one hour for HEK 293 clonal stable cell lines or 30 minutes-45 minutes at 37° C. for IMR-32 cells Fluorescence measurements were read simultaneously from all the wells by a Fluorometic Imaging Plate Reader (FLIPR) at an excitation wavelength of 480 nm and an emission wavelength of 520 nm. Baseline fluorescence was measured for the first 6 seconds at which 3× concentrations of modulator/test compounds were added to the cell plate at 50 μl and incubated for five minutes. The fluorescence intensity was captured every second for the first 1 minute followed by every 5 seconds for an additional 4 minutes. This procedure was followed by 50 μl of 4× concentration of agonist and readings were taken for a period of 3-5 minutes as described above. Data was normalized to maximal responses and plotted as a function of concentration. The concentration dependence of changes fluorescence responses was fitted by nonlinear regression analysis (GraphPad Prism, San Diego, Calif.) to obtain EC50 values.
# The positive allosteric modulator effects on α4β2 nAChRs exemplified by 3-(3-pyridin-3-yl-1,2,4-oxadiazol-5-yl)benzonitrile (Compound 1) and 3,5-di(pyridin-3-yl)-1,2,4-oxadiazole (Compound 2) can be identified by measuring their potentiating effect to fluorescence changes in intracellular calcium using a fluorimetric plate reader. The potentiating effect of an α4β2 modulator on α4β2 receptor can also be illustrated by concentration responses to α4β2 agonists, for example 5-[(2R)-azetidin-2-ylmethoxy]-2-chloropyridine (Compound A) and (3R)-1-pyridin-3-ylpyrrolidin-3-amine (Compound B), in presence of a fixed concentration of PAM. […] In addition to compound A and B, other known nicotinic agonists can be left-shifted in presence of α4β2 PAM such as […]. […] This could lead to preferential effects of the agonist at the desired subtype, viz., α4β2, without effects at other nicotinic receptor subtypes and thus enhancing in vivo selectivity of the agonist.
# The activity (allosteric effects—potentiation of fluorescence responses) ranges are defined as follows; “a” denotes as activity range from 200-400%, “b” denotes an activity range from 150-200%, “c” denotes an activity range from 120-150% and “d” denotes an activity range 90-120%. […]
# T1 sequence (P43681 29-627 limits assumed): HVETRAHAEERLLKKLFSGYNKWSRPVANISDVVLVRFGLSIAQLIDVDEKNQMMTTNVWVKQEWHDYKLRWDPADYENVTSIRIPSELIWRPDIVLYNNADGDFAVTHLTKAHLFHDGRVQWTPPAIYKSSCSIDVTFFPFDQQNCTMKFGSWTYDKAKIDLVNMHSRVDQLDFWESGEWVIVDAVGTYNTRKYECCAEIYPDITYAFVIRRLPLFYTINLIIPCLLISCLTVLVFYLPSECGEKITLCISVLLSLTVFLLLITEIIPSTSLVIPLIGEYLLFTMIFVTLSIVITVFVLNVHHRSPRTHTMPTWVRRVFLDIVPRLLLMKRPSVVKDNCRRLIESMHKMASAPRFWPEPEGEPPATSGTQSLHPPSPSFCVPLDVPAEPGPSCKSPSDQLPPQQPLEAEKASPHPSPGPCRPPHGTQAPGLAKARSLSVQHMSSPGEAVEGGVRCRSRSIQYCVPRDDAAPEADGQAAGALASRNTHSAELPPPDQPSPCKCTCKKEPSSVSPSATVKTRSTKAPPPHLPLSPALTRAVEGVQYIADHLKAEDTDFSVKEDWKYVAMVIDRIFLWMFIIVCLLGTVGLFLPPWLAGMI
# T1 sequence (P17787 26-502): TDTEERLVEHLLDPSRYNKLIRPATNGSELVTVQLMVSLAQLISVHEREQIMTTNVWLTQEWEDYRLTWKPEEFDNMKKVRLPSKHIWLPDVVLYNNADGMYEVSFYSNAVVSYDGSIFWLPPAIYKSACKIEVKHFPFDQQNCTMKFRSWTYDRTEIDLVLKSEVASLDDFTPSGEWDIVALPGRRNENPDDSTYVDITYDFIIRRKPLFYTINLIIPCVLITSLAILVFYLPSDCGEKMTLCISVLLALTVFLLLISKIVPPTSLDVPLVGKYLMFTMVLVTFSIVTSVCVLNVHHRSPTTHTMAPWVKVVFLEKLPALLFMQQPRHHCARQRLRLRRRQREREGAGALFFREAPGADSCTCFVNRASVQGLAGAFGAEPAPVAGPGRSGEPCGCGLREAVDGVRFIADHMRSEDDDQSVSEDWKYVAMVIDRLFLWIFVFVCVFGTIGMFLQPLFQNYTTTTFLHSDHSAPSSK
row,SMILES,potency (EC50 values) for activation of α4β2 nAChRs in the presence vs absence of PAM
1,"CN[C@@H](C)C/C=C/c1cncc(OC(C)C)c1 [ispronicline, reference compound]",increase in the presence of the positive allosteric modulator
2,"c1cnc2cc3c(cc2n1)[C@@H]1CNC[C@H]3C1 [varenicline, reference compound]",increase in the presence of the positive allosteric modulator

# Same assay, conditions: α4β2 positive allosteric modulation, calcium fluorescence (FLIPR)
row,SMILES,Activity (allosteric effects—potentiation of fluorescence responses)
1,"c1cncc(-c2noc(-c3cccnc3)n2)c1 [Example 2, 3,5-di(pyridin-3-yl)-1,2,4-oxadiazole]",a (“a” denotes as activity range from 200-400%)
2,"N#Cc1cccc(-c2noc(-c3cccnc3)n2)c1 [Example 3, 3-(5-(pyridin-3-yl)-1,2,4-oxadiazol-3-yl)benzonitrile]",a (“a” denotes as activity range from 200-400%)
3,"N#Cc1cccc(-c2noc(-c3ccc(F)nc3)n2)c1 [Example 4, 3-(5-(6-fluoropyridin-3-yl)-1,2,4-oxadiazol-3-yl)benzonitrile]",b (“b” denotes an activity range from 150-200%)
4,"Brc1cncc(-c2nc(-c3cccnc3)no2)c1 [Example 5, 5-(5-bromopyridin-3-yl)-3-(pyridin-3-yl)-1,2,4-oxadiazole]",c (“c” denotes an activity range from 120-150%)
5,"Cc1ccc(-c2noc(-c3cccc(C#N)c3)n2)cn1 [Example 7, 3-(3-(6-methylpyridin-3-yl)-1,2,4-oxadiazol-5-yl)benzonitrile]",b (“b” denotes an activity range from 150-200%)
6,"Oc1cncc(-c2nc(-c3cccnc3)no2)c1 [Example 9, 5-(3-(pyridin-3-yl)-1,2,4-oxadiazol-5-yl)pyridin-3-ol]",d (“d” denotes an activity range 90-120%)
7,"Fc1ccc(-c2nc(-c3cccnc3)no2)cc1F [Example 10, 5-(3,4-difluorophenyl)-3-(pyridin-3-yl)-1,2,4-oxadiazole]",a (“a” denotes as activity range from 200-400%)
8,"Fc1cccc(-c2nc(-c3cccnc3)no2)c1F [Example 11, 5-(2,3-difluorophenyl)-3-(pyridin-3-yl)-1,2,4-oxadiazole]",a (“a” denotes as activity range from 200-400%)
9,"N#Cc1ccc(-c2nc(-c3cccnc3)no2)cc1 [Example 19, 4-(3-(pyridin-3-yl)-1,2,4-oxadiazol-5-yl)benzonitrile]",b (“b” denotes an activity range from 150-200%)
10,"NS(=O)(=O)c1cccc(-c2nc(-c3cccnc3)no2)c1 [Example 35, 3-(3-(pyridin-3-yl)-1,2,4-oxadiazol-5-yl)benzenesulfonamide]",a (“a” denotes as activity range from 200-400%)
11,"O=[N+]([O-])c1cccc(-c2nc(-c3cccnc3)no2)c1 [Example 40, 5-(3-nitrophenyl)-3-(pyridin-3-yl)-1,2,4-oxadiazole]",a (“a” denotes as activity range from 200-400%)
12,"CS(=O)(=O)c1cccc(-c2nc(-c3cccnc3)no2)c1 [Example 41, 5-(3-(methylsulfonyl)phenyl)-3-(pyridin-3-yl)-1,2,4-oxadiazole]",c (“c” denotes an activity range from 120-150%)
13,"Clc1cc(-c2noc(-c3cccnc3)n2)ccn1 [Example 42, 3-(2-chloropyridin-4-yl)-5-(pyridin-3-yl)-1,2,4-oxadiazole]",c (“c” denotes an activity range from 120-150%)
14,"O=c1ccc(-c2noc(-c3cccnc3)n2)c[nH]1 [Example 55, 5-(5-(pyridin-3-yl)-1,2,4-oxadiazol-3-yl)pyridin-2(1H)-one]",c (“c” denotes an activity range from 120-150%)
15,"CC(=O)c1cccc(-c2nc(-c3cccnc3)no2)c1 [Example 68, 1-(3-(3-(pyridin-3-yl)-1,2,4-oxadiazol-5-yl)phenyl)ethanone]",b (“b” denotes an activity range from 150-200%)
16,"N#Cc1cccc(-c2noc(-c3ccc(Cl)nc3)n2)c1 [Example 76, 3-(5-(6-chloropyridin-3-yl)-1,2,4-oxadiazol-3-yl)benzonitrile]",b (“b” denotes an activity range from 150-200%)
17,"Fc1ccc(-c2nc(-c3ccnnc3)no2)cc1F [Example 83, 5-(3,4-Difluorophenyl)-3-(pyridazin-4-yl)-1,2,4-oxadiazole hydrochloride]",a (“a” denotes as activity range from 200-400%)
18,"Fc1ccc(-c2nc(-c3cncnc3)no2)cc1F [Example 101, 5-(3,4-difluorophenyl)-3-(pyrimidin-5-yl)-1,2,4-oxadiazole tosylate]",a (“a” denotes as activity range from 200-400%)
19,"O=c1[nH]c2cc(-c3nc(-c4cccnc4)no3)ccc2o1 [Example 125, 5-(3-(pyridin-3-yl)-1,2,4-oxadiazol-5-yl)benzo[d]oxazol-2(3H)-one]",a (“a” denotes as activity range from 200-400%)
20,"O=c1[nH]c2cc(-c3noc(-c4cccnc4)n3)ccc2o1 [Example 132, 5-(5-(pyridin-3-yl)-1,2,4-oxadiazol-3-yl)benzo[d]oxazol-2(3H)-one]",a (“a” denotes as activity range from 200-400%)
